Literature values, collected in US20250041246A1, “METHODS AND COMPOSITIONS FOR TREATING VITILIGO” (THE REGENTS OF THE UNIVERSITY OF CALIFORNIA, priority 2021, published 2025).

How the values were obtained:
[1] = tested on: existing melanosomes (in melanocytes); conditions: due to its effect on existing melanosomes (in melanocytes)
[2] = tested on: hyperpigmentary disorders; conditions: in hyperpigmentary disorders

| Structure (SMILES) | effect on skin pigmentation [1] | effect on skin pigmentation [2] |
| --- | --- | --- |
| [H]/N=C(/N)N/C(=N/[H])NCCc1ccccc1 [phenformin] | skin darkening effect |  |
| CN(C)C(=N)N=C(N)N [metformin] |  | lighten skin |
